As a reminder, the IC50 is the concentration that gives 50% inhibition. Read a low IC50 as greater potency.

The target of this experiment is T1, HCV RNA-dependent RNA polymerase (Hepatitis C virus genotype 1a, UniProt P27958).
T1 construct: HCV RNA-dependent RNA polymerase is encoded in the NS5B (nonstructural protein 5B) region of HCV; made in house; host or cells: insect cells or E. coli
The experiment in a line: Pre-incubation assay method with 3H-UTP (Example 1). The format is biochemical. Conditions: pre-incubation 25° C. 60 min, method of Example 1; for inhibition at 100 µg/mL: 100 μg/ml, read-out: Inhibition rate at a concentration of 100 μg/ml. Here is the method:
A HCV RNA-dependent RNA polymerase, template RNA, primer RNA and Mg ion (Mg^2+) are pre-incubated at approximately 25° C. for approximately 1 hour. After that, substrate RNA and a test substance are added to start an enzyme reaction and measure an enzyme activity. IC50 value can be calculated by comparing with an enzyme activity measured in the absence of a test substance as well as the above prior method. An inhibitor can be selected by comparing IC50. An example of a procedure of this method is shown in the later described Example 1.
A cDNA encoding HCV RNA-dependent RNA polymerase was made by use of HCV positive human plasma and HCV RNA-dependent RNA polymerase was expressed using the insect cells or the E. coli. HCV RNA-dependent RNA polymerase in the cell extract was purified by use of an anion exchange chromatography, a heparin affinity chromatography, a polyU affinity chromatography, a cation exchange chromatography and gel filtration chromatography. The purification was performed at 4° C. and Tris buffer (pH 7.5) containing ethylenediaminetetraacetic acid (1 mM), dithiothreitol (10 mM) and glycerol (20%) was used. The enzyme purified was stored at 4° C. until use for the assays.
• 1) The buffer I ^1) (10.5 μl) containing Tris-HCl (100 mM, pH 7.5), MgCl2 (25 mM), dithiothreitol (5 mM), KCl (125 mM) and ethylenediaminetetraacetic acid (5 mM) was transferred to a polypropylene tube and then poly(A)^2) solution (100 μg/ml, 10.5 μl), oligo(U)12 ^3) solution (1 μg/ml, 10.5 μl) and water (8 μl) were added into the tube and mixed. • 2) Next, HCV RNA-dependent RNA polymerase (10.5 μl) was added into the tube and pre-incubated at 25° C. for […]. • 3) The enzyme solution pre-incubated (50 μl) was added to a test compound (5.26 μl/well) dissolved with dimethyl sulfoxide or water in a well of a 96-wells microtiter plate. • 4) Additionally, the buffer II (10.6 μl) containing Tris-HCl (100 mM, pH 7.5), MgCl2 (25 mM), dithiothreitol (5 mM), KCl (125 mM), ethylenediaminetetraacetic acid (5 mM) and UTP • 4) (2.1 μM, 1 μCi ^3H-UTP), was mixed with water (39.4 μl). The mixture (50 μl) was added into the well and mix, and then the enzyme reaction was performed at 25° C. for 30 min. • 5) After enzyme reaction for 30 min, the enzyme reaction was stopped by adding disodium ethylenediaminetetraacetic acid (50 mM, 50 μl). • 6) By use of the cell-harvester, all volume of the enzyme reaction sample was transferred onto a filtermat bound with diethylaminoethyl base (referred to as DEAE-filtermat) and washed twice for 10 sec with sodium phosphate buffer (0.25 M, pH 7.0) and once for 10 sec with de-ionized water. • 7) The DEAE-filtermat was dried at 95° C. for 15 min and transferred into a sample bag with liquid scintillater (10 ml), and then a sample bag was sealed. • 8) The radio activity was measured by a scintillation counter. • 9) The inhibitory rate was calculated from the radioactivity measured (ccpm) as follows. [formula]
The concentration of compound at 50% inhibition (IC50 value) was calculated from the compound concentration used and the inhibitory rate calculated.
When use of a compound at a μg/ml results in A % inhibition and use of a compound at β μg/ml results in B % inhibition on condition of A≧50>B the IC50 value is obtained by the calculation as follows. IC50 (μg/ml)=10^[(50−B)/(A−B)×(log^α^−log^β^)+log^β^]

T1 sequence (P27958 2421-3011): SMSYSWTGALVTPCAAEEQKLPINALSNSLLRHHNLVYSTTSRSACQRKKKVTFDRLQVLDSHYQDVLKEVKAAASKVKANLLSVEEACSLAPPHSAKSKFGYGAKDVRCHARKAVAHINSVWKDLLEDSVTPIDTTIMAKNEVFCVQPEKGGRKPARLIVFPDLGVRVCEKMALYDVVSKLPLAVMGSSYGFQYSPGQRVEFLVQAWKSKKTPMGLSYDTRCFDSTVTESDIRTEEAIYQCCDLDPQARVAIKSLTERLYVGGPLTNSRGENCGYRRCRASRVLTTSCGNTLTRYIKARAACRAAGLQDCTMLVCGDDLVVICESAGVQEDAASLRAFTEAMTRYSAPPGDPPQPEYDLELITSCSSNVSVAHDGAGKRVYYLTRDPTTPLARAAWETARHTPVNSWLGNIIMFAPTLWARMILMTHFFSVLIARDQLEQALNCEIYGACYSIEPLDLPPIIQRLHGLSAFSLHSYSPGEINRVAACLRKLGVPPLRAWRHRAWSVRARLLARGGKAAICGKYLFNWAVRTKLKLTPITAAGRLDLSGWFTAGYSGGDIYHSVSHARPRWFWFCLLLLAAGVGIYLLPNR

Regarding `O=C(O)C(O)=CC(=O)c1ccc[nH]1` [Compound I-16], the inhibition at 100 µg/mL came to 92% and the IC50 is 55.2 µM.
Turning to `O=C(O)C(O)=CC(=O)c1ccc(F)cc1` [Compound I-11], the inhibition at 100 µg/mL was found to be 94% and the IC50 was 35.2 µM.
In the same order, the values of `O=C(O)C(O)=CC(=O)c1ccc(Cl)cc1Cl` [Compound I-18] are 90% and 49.8 µM.
Regarding `O=C(O)C(O)=CC(=O)c1ccc(O)cc1` [Compound I-2], the inhibition at 100 µg/mL amounted to 99% and half-maximal inhibition (IC50) was put at 4.32 µM.
In the case of `O=C(O)C(O)=CC(=O)c1cc2ccccc2[nH]1` [Compound I-8], the inhibition at 100 µg/mL is 95% and the midpoint of inhibition, the IC50, lay at 29.8 µM.
Consider `O=C(O)C(O)=CC(=O)c1ccccc1` [Compound I-5], for which the inhibition at 100 µg/mL stood at 98% and the IC50 was 12 µM.
With `COc1cc(C(=O)C=C(O)C(=O)O)ccc1O` [Compound I-17], the inhibition at 100 µg/mL is 92% and 46.2 µM corresponded to half-maximal inhibition (IC50).
For `Cn1cccc1C(=O)C=C(O)C(=O)O` [Compound I-15], the inhibition at 100 µg/mL turned out to be 94% and the IC50 is 50.2 µM.
As for `O=C(O)C(O)=CC(=O)c1cccs1` [Compound I-13], the inhibition at 100 µg/mL stood at 92% and it took 43.9 µM to reach half-maximal inhibition (IC50).
`O=C(O)C(O)=CC(=O)c1cccc(Br)c1` [Compound I-14]: the inhibition at 100 µg/mL came out at 93% and the IC50 was 32.8 µM.
In the same order, the values of `O=C(O)C(O)=CC(=O)c1ccsc1` [Compound I-10] are 94% and 36.3 µM.
`Nc1ccc(C(=O)C=C(O)C(=O)O)cc1` [Compound I-4]: the inhibition at 100 µg/mL was more than 99% and the IC50 was 6.76 µM.
`Cc1ccc(C(=O)C=C(O)C(=O)O)s1` [Compound I-6]: the inhibition at 100 µg/mL came to 97% and inhibition was half-maximal at 14.6 µM (IC50).
On to `COc1cccc(C(=O)C=C(O)C(=O)O)c1` [Compound I-12], for which the inhibition at 100 µg/mL is 94% and the IC50 is 37.8 µM.
In the case of `Cc1ccc(C(=O)C=C(O)C(=O)O)cc1` [Compound I-3], the inhibition at 100 µg/mL came to 99% and the IC50 is 4.85 µM.
`O=C(O)C(O)=CC(=O)c1ccc(Cl)cc1` [Compound I-9]: the inhibition at 100 µg/mL amounted to 94% and 31.3 µM corresponded to half-maximal inhibition (IC50).
The matching figures for `O=C(O)C(O)=CC(=O)c1ccc2ccccc2c1` [Compound I-7]: 95% and 28.5 µM.
